# Reference: US9556232B2, “Anti-angiogenic molecules, nanostructures and uses thereof” (Northwestern University, priority 2013, dated 2017)
# Entries after “also recorded” stand apart in the source; their conditions may differ.
# Columns and labels:
# HUVECs [1] = experiment: Assessment of cell migration on fibronectin (live-cell imaging); assay type: cell-based, human; details: HUVECs on FN-coated glass, bFGF stimulus, 10 μM
# Protocol: Assessment of Cell Migration on Fibronectin.
# Fibronectin from human plasma was coated onto tissue culture-treated 4-chamber glass-bottom petri dishes (In Vitro Scientific) at 7 μg/cm2 as previously described. Subconfluent HUVECs were incubated for 2 hr in starvation media before detaching with 0.05% trypsin/EDTA. Cells were then spun down to remove trypsin/EDTA, re-suspended in starvation media, and plated onto glass-bottom petri dishes at a concentration of 4000 cells per chamber. After cells attached (approximately 1 hr at 37° C.)., the media was aspirated and replaced with starvation media containing […] basic fibroblast growth factor (bFGF) and 10 μM MMPA, MMPep, or Scram PA. Live-cell imaging was performed on a Nikon BioStation IM at 37° C., and cell migration was quantified manually using a plugin to track the location of the cell nucleus every 30 mins in ImageJ software. ANOVA with a Dunnett's Multiple Comparisons post-test of each treatment condition against control was performed using GraphPad Prism software. For control, MMPA, MMPep, and ScramPA, n=56, 54, 31, and 42 respectively.
# [2] = Critical assembly concentration determination by nile red incorporation; assay type: physicochemical; details: in PBS, nile red blueshift in peak emission
# Protocol: Critical Assembly Concentration Determination by Nile Red Incorporation.
# MMPA, MMPep, or ScramPA solutions ranging from 100 nM to 200 μM concentration in PBS were made from stock solutions and NR dissolved in ethanol was diluted 200-fold into solutions to a final concentration of 500 nM. Using a NanoLogHJ spectrofluorometer, samples were excited at 550 nm and spectra were obtained between from 580 nm-750 nm. Blueshift was plotted against concentration to determine the critical assembly concentration.
# [3] = test system: chicken chorioallantoic membrane (CAM); experiment: Characterization of angiogenesis in vivo by CAM assay; details: 1 mM in PBS from filter paper circles, embryonic day 5, 21 hrs and 42 hrs
# Protocol: Characterization of Angiogenesis In Vivo by CAM Assay.
# In vivo assessment of the anti-angiogenic potential of PAs and peptide was performed using the chicken chorioallantoic membrane (CAM). In this well-established CAM assay, angiogenesis of the extraembryonic allantois was measured at several time points after treatment with PAs or peptide. Fertilized chicken eggs (Sunnyside Hatchery) were received and cultured in a temperature controlled, humidified egg incubator. On embryonic day 3, eggs were cracked into 100 mm sterile petri dishes without breaking the yolk sac and were transferred to a water-jacketed humidified CO2 incubator set to 37° C. On embryonic day 5, 5 μL of treatment (PA, peptide, or scrambled PA dissolved in PBS at 1 mM) or control (PBS) solutions were deposited onto autoclaved filter paper circles ¼″ in diameter. Solution-soaked filter paper circles were placed on top of the CAM and digital images were captured using a Nikon stereomicroscope. Vessel density was quantified by counting the number of vessels intersecting the circumference of filter paper circles and is expressed relative to the initial time point. ANOVA with a Dunnett's Multiple Comparisons post-test of each treatment condition against control was performed using GraphPad Prism software. A minimum of n=5 samples was analyzed for each treatment condition at each time point.
# HUVECs [4] = experiment: Assay of angiogenesis in vitro by tube formation; assay type: cell-based, human; details: HUVECs on matrigel, imaged 5 hrs after addition of treatment
# Protocol: Assay of Angiogenesis In Vitro by Tube Formation.
# Wells of a 96-well plate were coated with ECMatrix solution, and 5×10^3 HUVECs were plated in triplicate wells in a volume of 50 μL of endothelial growth medium (EGM) containing 0.5% FBS with 50 ng/mL bFGF for 2 hours. MMPA, MMPep, ScramPA treatments at respective dosages were added to the wells for 5 hours. Tube formation was evaluated by phase-contrast microscopy using an Olympus IX-70 microscope (100× magnification) connected to a Diagnostic Instruments Spot RT Camera. Experiments were repeated independently three times.
# HUVECs [5] = experiment: Flow cytometry and confocal microscopy to assess PA binding to HUVECs; assay type: cell-based, human
# Protocol: Flow Cytometry and Confocal Microscopy to Assess PA Binding.
# Stock fluorescent PA and peptide solutions were made by dissolving FITC-labeled molecules in PBS at a concentration of 200 μM (assuming peptide content of 90%). Stock fluorescent solutions were then mixed in equal volumes with 1 mM stock solutions of non-fluorescent PA or peptide solution and allowed to sit overnight at room temperature to make working solutions. Subconfluent human umbilical vein endothelial cells (HUVECs) were incubated for 2 hr in starvation media before detaching with 0.05% trypsin/EDTA. Cells were then spun down to remove trypsin/EDTA and were re-suspended in starvation media at 250,000/mL. Working peptide and PA solutions then added to cell suspensions such that the final concentration corresponded to 10 μM non-fluorescent molecule. After incubating at 37° C. for 30 mins, cells were spun down and resuspended in Hank's balanced salt solution (HBSS) twice. Fluorescence signal of each cell was quantified using a LSRFortessa cell analyzer (BD Biosciences). Cells were also plated on poly-d-lysine coated glass coverslips, fixed with 4% paraformaldehyde, and embedded in mounting media for imaging using an AIR laser scanning confocal microscope (Nikon). Machine parameters were kept constant for all samples in both confocal microscopy and flow cytometry experiments.
# HUVECs [6] = experiment: Assessment of cell adhesion on fibronectin (PicoGreen); assay type: cell-based, human; details: concentration not given
# Protocol: Assessment of Cell Adhesion on Fibronectin.
# The effect of peptide and PAs on HUVEC adhesion was assessed. Fibronectin from human plasma (Sigma) was dissolved in sterile MilliQ water and was added to tissue culture-treated 96 well plates at 5 μg/cm2, which were then left to dry overnight at room temperature in a sterile laminar flow hood. Coated plates were stored at 4° C. and warmed to 37° C. prior to use. Subconfluent HUVECs were incubated for 2 hr in starvation media (EndoGRO basal media from Millipore supplemented with 0.5% fetal bovine serum and 1× penicillin-streptomycin from Gibco) before detaching with 0.05% trypsin/EDTA. Cells were then spun down to remove trypsin/EDTA and were re-suspended in PBS containing peptide or PA molecules. Cells were incubated in treatment for 30 min at 37° C. and then plated at 15,000 cells/well. After 45 mins, wells were washed once with PBS to detach loosely adhered cells. A PicoGreen assay (Invitrogen) was used to quantify number of cells in each well. Cell counts were normalized to that obtained in wells with no treatment. Statistical analysis was performed in GraphPad Prism software using one-way analysis of variance (ANOVA) with a Bonferroni's Multiple Comparisons post-test comparing all pairs of columns. For all treatment groups, n=4.
substance,measurement,setting,value
"MMPep: 15-residue peptide: maspin g-helix sequence plus two residues on either end, EDESTGLEKIEKQLN, synthesized as previously reported [reference compound]",cell motility / migration vs PBS control,HUVECs [1],statistically less migratory (P<0.05); also recorded: significantly decrease cell motility over untreated controls
same,average cell migration speed,HUVECs [1]; measured over at least 2 hrs and up to 8 hrs,0.30 μm/min
same,critical aggregation assembly concentration (CAC),[2],> 200 µM
same,"angiogenesis in CAM (vessels intersecting filter paper circumference, normalized to initial count) vs PBS control",[3],present but is statistically insignificant
same,inhibition of tube formation,HUVECs [4],slightly effective at greater than 10 μM; also recorded: partially inhibited tube formation at higher concentrations (10 μM)
same,median FITC intensity per cell,"HUVECs [5]; FACS, HUVECs, FITC-labeled molecule mixed with non-fluorescent molecule, 10 μM, 30 mins 37° C.",2.6 times that of untreated control
same,"cell binding (FACS, HUVEC fluorescence)",HUVECs [5]; HUVECs treated with FITC-labeled PAs and peptide,binds to cells significantly less effectively than PA nanostructures
same,HUVEC adhesion to FN surface vs untreated controls,HUVECs [6],do not show this effect; also recorded: unable to improve cell adhesion over untreated controls
